{"source": "patent US12616697B2", "about": "“Methods of treatment with myosin modulator” (MyoKardia, Inc., priority 2020, dated 2026)", "tested_on": "subjects with symptomatic non-obstructive HCM (nHCM)", "assay": "[…]-HCM Phase 2 randomized, double-blind, placebo-controlled, concentration-guided study", "assay_type": "in vivo, human", "set-up": "Overall KCCQ Summary Score, mean change / Clinical KCCQ Summary Score, mean change / Overall KCCQ Summary Score / Clinical KCCQ Summary Score: scale not given here", "settings": "for LVEF, mean change: Week 16", "source_text": "This is a Phase 2 trial designed to assess the safety and tolerability of a range of exposures over 16 weeks of treatment in subjects with symptomatic, non-obstructive HCM. All study subjects were required to be diagnosed with non-obstructive HCM, with left ventricular wall thickness either ≥15 mm or ≥13 mm with a family history of HCM, LVEF≥55%, NYHA classifications of Class II or III, and NT-proBNP levels of greater than 300 pg/mL at rest. Baseline characteristics, such as age, weight, gender, pathogenic mutation status, background beta blocker use, NYHA classification and exercise capacity were approximately evenly distributed between active and placebo arms.\nThis double-blind study enrolled 59 individuals with nHCM (Left ventricular outflow tract gradient<30 mmHg; resting or provoked), NYHA Class II or III, and LVEF≥55%. Subjects were randomized 1:1:1 to one of two target plasma drug concentrations (Group 1: ˜200 ng/mL and Group 2: ˜500 ng/mL) or placebo for 16 weeks, followed by an 8-week washout. […] Predefined criteria, including LVEF (LVEF≤45%), guided study drug discontinuation if indicated. Cardiopulmonary exercise testing was performed at baseline and Week 16 to assess the impact on exercise capacity.\nDose adjustments will be based on PK parameters. Assessments include safety, standardized cardiopulmonary exercise testing (CPET) with measurement of peak oxygen consumption, echocardiography to evaluate left ventricular ejection fraction (LVEF) and parameters of diastolic function, symptoms, quality of life, daily step counts, and NT-proBNP at rest and after exercise. In addition, subjects may consent to hypertrophic cardiomyopathy genotyping and pharmacogenetic sampling.\nCardiac Troponin I levels were evaluated on plasma and serum samples of subjects at baseline and at various time points in the trial (Abbott Architect Stat Troponin-I assay (Ref. 2K41)). Cardiac Troponin T levels were evaluated on plasma and serum samples of subjects at baseline and at various time points in the trial (Roche Elecsys Troponin T hs assay) (Ref. 08469873190) performed on a cobas e 801 analyzer). NT-proBNP levels were evaluated on plasma samples using the Roche Elecsys proBNPII assay (Ref. 07027664190) on a cobas e 801 analyzer.\nSubjects were randomized via an interactive response system to 3 groups in a 1:1:1 ratio: 2 active treatment groups and 1 matching placebo.\n5 mg QD was used as the starting dose for the study. All subjects in the active treatment groups started on 5 mg QD. […] PK modeling was used to guide blinded dose adjustment at the Week 6 visit, based on the plasma concentrations collected at Week 4. Subjects in the placebo group underwent the same assessments in order to preserve the blind. […] Subjects were instructed to take the drug under fasting conditions, at approximately the same time each day, and with 8 ounces of water.\nTo achieve the target concentration, if a subject's Week 4 concentration was >450 ng/mL, the subject's dose was decreased to 2.5 mg QD; if Week 4 concentration was 110-450 ng/mL, the dose was maintained at 5 mg QD; and if Week 4 concentration was <110 ng/mL, the dose was increased to 10 mg QD.\nSubjects were monitored for adverse events (AE), including high blood plasma concentration, systolic dysfunction, QT prolongation, and LVEF decrease. If any of the following thresholds were hit PK 1000 or more, QTcF 500, or LVEF 45%, the subjects were discontinued on drug. Specifically, high blood plasma concentration was defined as blood plasma concentration greater than or equal to 1000 ng/mL; QT prolongation was defined as QTcF greater than or equal to 500 ms; and LVEF shortening was defined as LVEF less than or equal to 45% (including serious adverse event (SAE) for LVEF less than or equal to 30%).\nEfficacy and pharmacodynamics assessments were also made. Resting transthoracic echocardiography measurements were taken at Weeks 4, 8, 12 and 16. […]", "key": {"[1]": {"settings": "Elevated Troponin subgroup, Mean Difference vs placebo"}, "[2]": {"settings": "Elevated Troponin subgroup, mean change from baseline"}, "[3]": {"settings": "Subgroup with Elevated E/e′ at Baseline, Difference mavacamten vs placebo"}, "[4]": {"settings": "Subgroup with Elevated E/e′ at Baseline, pooled, mean change from baseline"}}, "data": [{"compound": "CC(C)n1c(=O)cc(N[C@@H](C)c2ccccc2)[nH]c1=O", "note": "[mavacamten, (S)-3-Isopropyl-6-((1-phenylethyl)amino)pyrimidine-2, 4(1H,3H)-dione]", "values": [{"measurement": "Composite Functional Endpoint: Met endpoint, either type, %", "setting": "Combined Subgroup (elevated cTnI or E/e′ average >14), Pooled", "value": 33, "unit": "%"}, {"measurement": "Composite Functional Endpoint: Met endpoint, either type, %", "setting": "Combined Subgroup, Group 1 ~200 ng/mL", "value": "(33.3) %"}, {"measurement": "Composite Functional Endpoint: Met endpoint, either type, %", "setting": "Combined Subgroup, Group 2 ~500 ng/mL", "value": "(33.3) %"}, {"measurement": "Clinical KCCQ Summary Score", "setting": "[1]", "value": 8.8}, {"measurement": "NYHA Class", "setting": "[1]", "value": "−0.3"}, {"measurement": "Peak VO2", "setting": "[1]", "value": 2.70, "unit": "mL/min/kg"}, {"measurement": "Serum Troponin I (cTnI)", "setting": "[1]", "value": -0.083, "unit": "ng/mL"}, {"measurement": "Clinical KCCQ Summary Score", "setting": "[2]", "value": 6.9}, {"measurement": "NYHA Class", "setting": "[2]", "value": "−0.5"}, {"measurement": "Overall KCCQ Summary Score", "setting": "[2]", "value": 6.4}, {"measurement": "Serum Troponin I (cTnI)", "setting": "[2]", "value": -0.12, "unit": "ng/mL"}, {"measurement": "Clinical KCCQ Summary Score, mean change", "setting": "ITT, Group 1 ~200 ng/mL", "value": 0.11}, {"measurement": "Lateral e′, mean change", "setting": "ITT, Group 1 ~200 ng/mL", "value": 0.34, "unit": "cm/s"}, {"measurement": "NYHA Class, mean change", "setting": "ITT, Group 1 ~200 ng/mL", "value": "−0.6"}, {"measurement": "Overall KCCQ Summary Score, mean change", "setting": "ITT, Group 1 ~200 ng/mL", "value": 0.35}, {"measurement": "Peak VO2, mean change", "setting": "ITT, Group 1 ~200 ng/mL", "value": 0.36, "unit": "mL/min/kg"}, {"measurement": "Septal e′, mean change", "setting": "ITT, Group 1 ~200 ng/mL", "value": 0.64, "unit": "cm/s"}, {"measurement": "LVEF, mean change", "setting": "ITT, Group 1 ~200 ng/mL", "value": "−2.30", "unit": "%"}, {"measurement": "LVEDV, mean change", "setting": "ITT, Group 2 ~500 ng/mL", "value": 6.50, "unit": "mL"}, {"measurement": "NYHA Class, mean change", "setting": "ITT, Group 2 ~500 ng/mL", "value": "−0.3"}, {"measurement": "Peak VO2, mean change", "setting": "ITT, Group 2 ~500 ng/mL", "value": 0.12, "unit": "mL/min/kg"}, {"measurement": "Septal e′, mean change", "setting": "ITT, Group 2 ~500 ng/mL", "value": 1.60, "unit": "cm/s"}, {"measurement": "Lateral e′, mean change", "setting": "ITT, Pooled", "value": 0.94, "unit": "cm/s"}, {"measurement": "NYHA Class, mean change", "setting": "ITT, Pooled", "value": "−0.4"}, {"measurement": "Peak VO2, mean change", "setting": "ITT, Pooled", "value": 0.22, "unit": "mL/min/kg"}, {"measurement": "LVEF, mean change", "setting": "ITT, Pooled", "value": "−4.1", "unit": "%"}, {"measurement": "Clinical KCCQ Summary Score", "setting": "[3]", "value": 4.1}, {"measurement": "LVEDVi", "setting": "[3]", "value": 3.9, "unit": "mL/m^2"}, {"measurement": "NYHA Class", "setting": "[3]", "value": 0.0}, {"measurement": "Overall KCCQ Summary Score", "setting": "[3]", "value": 0.4}, {"measurement": "Peak VO2", "setting": "[3]", "value": 1.9, "unit": "mL/min/kg"}, {"measurement": "cTnI", "setting": "[3]", "value": -0.07, "unit": "ng/mL"}, {"measurement": "Clinical KCCQ Summary Score", "setting": "[4]", "value": 4.6}, {"measurement": "LVEDVi", "setting": "[4]", "value": 2.8, "unit": "mL/m^2"}, {"measurement": "NYHA Class", "setting": "[4]", "value": "−0.4"}, {"measurement": "Overall KCCQ Summary Score", "setting": "[4]", "value": 4.7}, {"measurement": "Peak VO2", "setting": "[4]", "value": 1.2, "unit": "mL/min/kg"}, {"measurement": "cTnI", "setting": "[4]", "value": -0.09, "unit": "ng/mL"}, {"measurement": "Serious adverse events (SAEs), subjects", "setting": "subjects receiving mavacamten, placebo 21%", "value": 10, "unit": "%"}, {"measurement": "participants with a decrease in LVEF to ≤45%, %", "setting": "weeks 11-12, active treatment", "value": 12.5, "unit": "%"}]}]}
